Here are results for 35 compounds from patent US7420056B2, “Substituted bicyclic imidazo-3-ylamine compounds” (Gruenenthal GmbH, priority 2004, dated 2008).

In the test the target is mGluR5 receptor (Sus scrofa, UniProt I3LUI7). The test can be described thus: Affinity for the mGluR5 receptor: inhibition of 3[H]-MPEP binding in pig brain homogenate. The note with it: for inhibition at 10 µM: 10 μM compound, 5 nM 3[H]-MPEP, read-out: mGluR5 receptor inhibition of ^3[H]-MPEP binding [10 μM] in % at a concentration of the example compounds of 10 μM; for IC50: 3[H]-MPEP binding. In short, it runs like this: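 Pig brain membranes (450 μg protein; hemispheres without medulla, cerebellum and pons) in 30 mM Hepes pH 8.0 were incubated 60 min at room temperature with 5 nM [3H]-MPEP and compound at 10 μM. Bound radioactivity was filtered and counted. Nonspecific binding was defined with 10 μM MPEP.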
Chain of mGluR5 receptor (I3LUI7 19-1212): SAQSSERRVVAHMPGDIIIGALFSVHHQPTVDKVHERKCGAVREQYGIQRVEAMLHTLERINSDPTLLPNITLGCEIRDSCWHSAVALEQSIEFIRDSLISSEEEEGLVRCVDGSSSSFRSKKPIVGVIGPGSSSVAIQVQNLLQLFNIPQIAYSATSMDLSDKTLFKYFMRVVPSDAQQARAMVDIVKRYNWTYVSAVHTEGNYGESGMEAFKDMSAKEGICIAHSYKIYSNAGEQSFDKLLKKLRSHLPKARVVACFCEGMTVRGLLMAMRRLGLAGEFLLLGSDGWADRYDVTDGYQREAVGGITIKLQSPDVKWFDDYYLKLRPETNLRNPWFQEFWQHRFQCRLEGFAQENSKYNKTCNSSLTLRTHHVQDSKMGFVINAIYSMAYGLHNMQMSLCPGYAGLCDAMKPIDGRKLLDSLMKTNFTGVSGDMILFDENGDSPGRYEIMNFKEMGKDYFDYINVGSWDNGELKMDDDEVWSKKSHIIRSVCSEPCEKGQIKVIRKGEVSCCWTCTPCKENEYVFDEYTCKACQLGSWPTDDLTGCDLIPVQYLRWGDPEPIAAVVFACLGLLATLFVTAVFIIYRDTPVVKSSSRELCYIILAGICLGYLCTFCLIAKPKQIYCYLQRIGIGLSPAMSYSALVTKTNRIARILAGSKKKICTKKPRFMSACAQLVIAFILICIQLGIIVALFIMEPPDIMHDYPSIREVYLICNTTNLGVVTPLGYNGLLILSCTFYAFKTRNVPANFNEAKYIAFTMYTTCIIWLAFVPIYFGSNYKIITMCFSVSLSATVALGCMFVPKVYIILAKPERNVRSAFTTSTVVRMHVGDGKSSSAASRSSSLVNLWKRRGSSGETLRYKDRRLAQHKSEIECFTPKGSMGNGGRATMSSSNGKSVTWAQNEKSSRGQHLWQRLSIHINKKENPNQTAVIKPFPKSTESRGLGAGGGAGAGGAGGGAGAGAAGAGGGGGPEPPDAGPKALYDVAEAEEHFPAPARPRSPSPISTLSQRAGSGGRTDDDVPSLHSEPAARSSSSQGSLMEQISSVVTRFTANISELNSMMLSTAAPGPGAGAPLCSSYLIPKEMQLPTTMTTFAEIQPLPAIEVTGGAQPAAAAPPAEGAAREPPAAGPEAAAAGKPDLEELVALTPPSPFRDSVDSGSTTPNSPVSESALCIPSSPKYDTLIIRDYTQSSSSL

Structures are written as SMILES. Where a name gives a salt, the structure may show the parent alone.

`Cc1cccn2c(Nc3ccc(F)cc3)c(-c3cccc(C#Cc4ccccn4)c3)nc12` [Example 296, N-(4-fluorophenyl)-8-methyl-2-(3-(pyridin-2-ylethynyl)phenyl)imidazo[1,2-a]pyridin-3-amine]: the inhibition at 10 µM stood at 85%. Regarding `Cc1cccn2c(NC3CCCCC3)c(-c3ccc(C#Cc4ccccn4)cc3)nc12` [Example 297, N-cyclohexyl-8-methyl-2-(4-(pyridin-2-ylethynyl)phenyl)imidazo[1,2-a]pyridin-3-amine], the inhibition at 10 µM was 80%. As to `CCc1ccn2c(NC3CCCCC3)c(-c3ccc(C#Cc4ccccn4)s3)nc2c1` [Example 298, N-cyclohexyl-7-ethyl-2-(5-(pyridin-2-ylethynyl)thiophen-2-yl)imidazo[1,2-a]pyridin-3-amine], the inhibition at 10 µM was determined as 95%. On to `CCc1ccn2c(NC(C)(C)CC(C)(C)C)c(-c3ccc(C#Cc4ccccn4)s3)nc2c1` [Example 299, 7-ethyl-2-(5-(pyridin-2-ylethynyl)thiophen-2-yl)-N-(2,4,4-trimethylpentan-2-yl)imidazo[1,2-a]pyridin-3-amine], for which the inhibition at 10 µM came to 86%. Regarding `CCc1ccn2c(NC3CCCCC3)c(-c3cccc(C#Cc4ccccn4)c3)nc2c1` [Example 300, N-cyclohexyl-7-ethyl-2-(3-(pyridin-2-ylethynyl)phenyl)imidazo[1,2-a]pyridin-3-amine], the inhibition at 10 µM was determined as 50%.

`CCc1ccn2c(NC3CCCC3)c(-c3ccc(C#Cc4ccccn4)cc3)nc2c1` [Example 301, N-cyclopentyl-7-ethyl-2-(4-(pyridin-2-ylethynyl)phenyl)imidazo[1,2-a]pyridin-3-amine]: the inhibition at 10 µM was 78%. Consider `CCc1ccn2c(NC3CCCC3)c(-c3ccc(C#Cc4ccccc4)nc3)nc2c1` [Example 302, N-cyclopentyl-7-ethyl-2-(6-(phenylethynyl)pyridin-3-yl)imidazo[1,2-a]pyridin-3-amine], for which the inhibition at 10 µM was found to be 55%.

Consider `CCc1ccn2c(NC(C)(C)C)c(-c3ccc(C#Cc4ccccc4)nc3)nc2c1` [Example 303, N-tert-butyl-7-ethyl-2-(6-(phenylethynyl)pyridin-3-yl)imidazo[1,2-a]pyridin-3-amine], for which the inhibition at 10 µM is 67%. For the compound `CCc1ccn2c(NC(C)(C)C)c(-c3ccc(C#Cc4ccccn4)o3)nc2c1` [Example 304, N-tert-butyl-7-ethyl-2-(5-(pyridin-2-ylethynyl)furan-2-yl)imidazo[1,2-a]pyridin-3-amine], the inhibition at 10 µM was 94%.

For the compound `CC(C)c1ccn2c(NC(C)(C)CC(C)(C)C)c(-c3ccc(C#Cc4ccccn4)s3)nc2c1` [Example 305, 7-isopropyl-2-(5-(pyridin-2-ylethynyl)thiophen-2-yl)-N-(2,4,4-trimethylpentan-2-yl)imidazo[1,2-a]pyridin-3-amine], the inhibition at 10 µM was 75%. With `CC(C)c1ccn2c(NC(C)(C)C)c(-c3cccc(C#Cc4ccccn4)c3)nc2c1` [Example 306, N-tert-butyl-7-isopropyl-2-(3-(pyridin-2-ylethynyl)phenyl)imidazo[1,2-a]pyridin-3-amine], the inhibition at 10 µM worked out at 76%. For `CC(C)c1ccn2c(NC(C)(C)C)c(-c3ccc(C#Cc4ccccn4)cc3)nc2c1` [Example 307, N-tert-butyl-7-isopropyl-2-(4-(pyridin-2-ylethynyl)phenyl)imidazo[1,2-a]pyridin-3-amine], the inhibition at 10 µM was 88%. As for `CC(C)c1ccn2c(NC3CCCCC3)c(-c3ccc(C#Cc4ccccn4)o3)nc2c1` [Example 308, N-cyclohexyl-7-isopropyl-2-(5-(pyridin-2-ylethynyl)furan-2-yl)imidazo[1,2-a]pyridin-3-amine], the inhibition at 10 µM is 70%.

With `Cc1cccc(C#Cc2cccc(-c3nc4cc(C(C)C)ccn4c3NC(C)(C)C)c2)n1` [Example 309, N-tert-butyl-7-isopropyl-2-(3-((6-methylpyridin-2-yl)ethynyl)phenyl)imidazo[1,2-a]pyridin-3-amine], the inhibition at 10 µM was 82%. Regarding `Clc1ccc2nc(-c3ccc(C#Cc4ccccn4)s3)c(NC3CCCC3)n2c1` [Example 310, 6-chloro-N-cyclopentyl-2-(5-(pyridin-2-ylethynyl)thiophen-2-yl)imidazo[1,2-a]pyridin-3-amine], the inhibition at 10 µM was determined as 86%. As to `CC(C)(C)Nc1c(-c2ccc(C#Cc3ccccn3)s2)nc2ccc(Cl)cn12` [Example 311, N-tert-butyl-6-chloro-2-(5-(pyridin-2-ylethynyl)thiophen-2-yl)imidazo[1,2-a]pyridin-3-amine], the inhibition at 10 µM was 86%. For the compound `Clc1ccc2nc(-c3cccc(C#Cc4ccccn4)c3)c(NC3CCCCC3)n2c1` [Example 312, 6-chloro-N-cyclohexyl-2-(3-(pyridin-2-ylethynyl)phenyl)imidazo[1,2-a]pyridin-3-amine], the inhibition at 10 µM worked out at 64%.

As for `CC(C)(C)CC(C)(C)Nc1c(-c2cccc(C#Cc3ccccn3)c2)nc2ccc(Cl)cn12` [Example 313, 6-chloro-2-(3-(pyridin-2-ylethynyl)phenyl)-N-(2,4,4-trimethylpentan-2-yl)imidazo[1,2-a]pyridin-3-amine], the inhibition at 10 µM stood at 33%.

As for `CC(C)(C)Nc1c(-c2ccc(C#Cc3ccccn3)cc2)nc2ccc(Cl)cn12` [Example 314, N-tert-butyl-6-chloro-2-(4-(pyridin-2-ylethynyl)phenyl)imidazo[1,2-a]pyridin-3-amine], the inhibition at 10 µM was found to be 79%. On to `Clc1ccc2nc(-c3ccc(C#Cc4ccccn4)cc3)c(NC3CCCCC3)n2c1` [Example 315, 6-chloro-N-cyclohexyl-2-(4-(pyridin-2-ylethynyl)phenyl)imidazo[1,2-a]pyridin-3-amine], for which the inhibition at 10 µM turned out to be 75%.

`CC(C)(C)Nc1c(-c2ccc(C#Cc3ccccn3)o2)nc2ccc(Cl)cn12` [Example 316, N-tert-butyl-6-chloro-2-(5-(pyridin-2-ylethynyl)furan-2-yl)imidazo[1,2-a]pyridin-3-amine]: the inhibition at 10 µM was 55%.

With `Clc1ccc2nc(-c3ccc(C#Cc4ccccn4)o3)c(NC3CCCCC3)n2c1` [Example 317, 6-chloro-N-cyclohexyl-2-(5-(pyridin-2-ylethynyl)furan-2-yl)imidazo[1,2-a]pyridin-3-amine], the inhibition at 10 µM amounted to 58%. Regarding `CC(C)(C)CC(C)(C)Nc1c(-c2ccc(C#Cc3ccccn3)o2)nc2ccc(Cl)cn12` [Example 318, 6-chloro-2-(5-(pyridin-2-ylethynyl)furan-2-yl)-N-(2,4,4-trimethylpentan-2-yl)imidazo[1,2-a]pyridin-3-amine], the inhibition at 10 µM came to 43%. Regarding `Cc1cccc(C#Cc2cccc(-c3nc4ccc(Cl)cn4c3NC3CCCC3)c2)n1` [Example 319, 6-chloro-N-cyclopentyl-2-(3-((6-methylpyridin-2-yl)ethynyl)phenyl)imidazo[1,2-a]pyridin-3-amine], the inhibition at 10 µM is 81%. Regarding `Cc1cccc(C#Cc2cccc(-c3nc4ccc(Cl)cn4c3NC(C)(C)C)c2)n1` [Example 320, N-tert-butyl-6-chloro-2-(3-((6-methylpyridin-2-yl)ethynyl)phenyl)imidazo[1,2-a]pyridin-3-amine], the inhibition at 10 µM was 77%. `CNc1c(-c2ccc(C#Cc3ccccn3)s2)nc2cnccn12` [Example 322, N-methyl-2-(5-(pyridin-2-ylethynyl)thiophen-2-yl)imidazo[1,2-a]pyrazin-3-amine] had an IC50 of 120 nM. Regarding `CC(C)(C)CC(C)(C)Nc1c(-c2ccc(C#Cc3ccccn3)s2)nc2ccccn12` [Example 324, [2-(5-pyridin-2-ylethynyl-thiophen-2-yl)-imidazo[1,2-a]pyridin-3-yl]-(1,1,3,3-tetramethyl-butyl)-amine], the IC50 turned out to be 59 nM. Still for that read-out and setting: then `CC(C)(C)Nc1c(-c2ccc(C#Cc3ncccn3)s2)nc2ccccn12` [Example 325, tert-butyl-[2-(5-pyrimidin-2-ylethynyl-thiophen-2-yl)-imidazo[1,2-a]pyridin-3-yl]-amine hydrochloride], with 13 nM. As for `CC(C)(C)Nc1c(-c2ccc(C#Cc3ncccc3N)s2)nc2ccccn12` [Example 326, {2-[5-(3-amino-pyridin-2-ylethynyl)-thiophen-2-yl]-imidazo[1,2-a]pyridin-3-yl}-tert-butyl-amine], the IC50 is 39 nM. For the compound `CC(C)(C)Nc1c(-c2ccc(C#Cc3nccs3)s2)nc2ccccn12` [Example 332, tert-butyl-[2-(5-thiazol-2-ylethynyl-thiophen-2-yl)-imidazo[1,2-a]pyridin-3-yl]-amine hydrochloride], the IC50 came out at 14 nM. Same read-out and setting: then `CC(C)(C)Nc1c(-c2ccc(C#Cc3cccc(OC(F)(F)F)c3)s2)nc2cnccn12` [Example 333, tert-butyl-{2-[5-(3-trifluoromethoxy-phenylethynyl)-thiophen-2-yl]-imidazo[1,2-a]pyrazin-3-yl}-amine], with 420 nM.

For `CC(C)(C)Nc1c(-c2ccc(C#Cc3cccc(C4OCCO4)c3)s2)nc2ccccn12` [Example 334, tert-butyl-{2-[5-(3-[1,3]dioxolan-2-yl-phenylethynyl)-thiophen-2-yl]-imidazo[1,2-a]pyridin-3-yl}-amine], the IC50 is 10000 nM. In turn, `CC(C)(C)Nc1c(-c2ccc(C#Cc3ncccc3F)s2)nc2ccccn12` [Example 336, tert-butyl-{2-[5-(3-fluoro-pyridin-2-ylethynyl)-thiophen-2-yl]-imidazo[1,2-a]pyridin-3-yl}-amine hydrochloride] registered an IC50 of 6.1 nM.

Compound `Cn1cncc1C#Cc1ccc(-c2nc3ccccn3c2NC(C)(C)C)s1` [Example 337, tert-butyl-{2-[5-(3-methyl-3H-imidazol-4-ylethynyl)-thiophen-2-yl]-imidazo[1,2-a]pyridin-3-yl}-amine hydrochloride] yielded an IC50 of 6260 nM. In the case of `CC(C)(C)Nc1c(-c2ccc(C#Cc3ccc(Cl)s3)s2)nc2ccccn12` [Example 338, tert-butyl-{2-[5-(5-chloro-thiophen-2-ylethynyl)-thiophen-2-yl]-imidazo[1,2-a]pyridin-3-yl}-amine hydrochloride], the inhibition at 10 µM was found to be 52%.

Usually IC50 stands for the concentration needed to halve the response being measured. Low values mean inhibition by little substance, high ones a need for much substance.
